Each structure is given as a SMILES string. Like-named read-outs stand apart in the source and are kept apart here.

Series [1] in a line: Plasma pharmacokinetics following oral dose administration to male Wistar Han rats. The class given is in vivo. To be noted: rat, oral gavage; for half-life / AUC(0-inf) / AUC(0-t) / Cmax / Tmax: plasma. As to the method: The plasma pharmacokinetics of compound 1 was assessed following oral dose administration to male Wistar Han Rats.
The Wistar Han Rat was chosen as the animal model for this study as it is an accepted rodent species for preclinical toxicity testing by regulatory agencies. Animals were socially housed (up to 3 animals of the same group) in polycarbonate cages containing appropriate bedding equipped with water bottles and may be provided with items such as devices for hiding in, paper and/or objects for chewing, unless contraindicated by study procedures. Pelleted rodent diet were provided ad libitum throughout the study, except during designated procedures.
The 9 male animals were 8 to 10 weeks old at initiation of dosing.
Vehicle: 1% Ethanol/12% Kolliphor HS-15/87% Saline (w/w/v).
Dose formulation was prepared as follows: test item was dissolved in ethanol. Kolliphor HS-15 and saline was heated separately to 60° C., and the required amount of heated Kolliphor HS-15 added to the test item/ethanol solution. The mixture was stirred at until homogenous. Hot saline was added to the mixture to meet dose level requirements, and stirred at 60° C. until a homogenous solution. Prior to release, the formulations were allowed to cool to 40° C. Subsequently, the formulations were stored at room temperature until dosing.
Groups 1, 2 and 3: The test item was administered to the appropriate animals by oral gavage. The dose was given using a plastic feeding tube.
PK Sample Collection: From animals in Group 1 to 3 blood was collected according to the PK sample collection table (outlined in Table 3). Approximately 0.2 mL blood samples was taken from the jugular vein and collected into tubes containing K2 EDTA as anti-coagulant and stored on ice.
Sample Processing and Storage: Whole blood was processed to plasma by centrifugation (3000 g for 10 minutes at 5° C.) within 1 hour of collection. Plasma samples were transferred into labelled polypropylene tubes and stored at <−75° C. until shipment.

The subject of series [2] is mouse model of generalised seizure (tonic hind limb extensor convulsions). In words: Maximal electroshock seizure threshold (MEST) test in the mouse. To be noted: 30 min post dose. The protocol: The efficacy of the cannabinoid derivative according to formula (I) was tested in a mouse model of generalised seizure, the maximal electroshock seizure threshold (MEST) test.
The maximal electroshock seizure threshold (MEST) test is widely utilized preclinically to evaluate pro- or anti-convulsant properties of test compounds (Loscher et al., 1991).
In the MEST test the ability of a drug to alter the seizure threshold current required to induce hind limb tonic extensor convulsions is measured according to an “up and down” method of shock titration (Kimball et al., 1957). An increase in seizure threshold is indicative of anti-convulsant effect.
The ability of a test compound to alter the stimulus intensity, expressed as current (mA), required to induce the presence of tonic hind limb extensor convulsions, is assessed in the MEST.
Naïve mice were acclimatised to the procedure room in their home cages for up to 7 days, with food and water available ad libitum.
All animals were weighed at the beginning of the study and randomly assigned to treatment groups based on a mean distribution of body weight across groups.
The first animal within a treatment group was given a shock at the expected or estimated CC50 current. For subsequent animals, the current was lowered or raised depending on the convulsions outcome from the preceding animal, in intervals of 5 mA.
Data generated from each treatment group were used to calculate the CC50±SEM values for the treatment group.
Vehicle: (5% ethanol, 10% solutol, 85% Saline) was prepared as follows: 1 mL of ethanol, 2 mL of solutol were warmed to 60° C., in 17 mL of saline (1:2:17).
The test compound, described herein as compound 1, is as shown as formula (I). Test compound was administered at 2, 20 and 200 mg/kg (i.p.) in a 1:2:17 ethanol:solutol:0.9% saline formulation.
The data for each treatment group were recorded as the number of +'s and 0's at each current level employed and this information is then used to calculate the CC50 value (current required for 50% of the animals to show seizure behaviour)±standard error.
Test compound effects were also calculated as percentage change in CC50 from the vehicle control group.
Significant difference between drug-treated animals and controls were assessed according to Litchfield and Wilcoxon (1949).

[3] abbreviates: male, Wistar Han, in vivo, po, 15 mg/kg, 15 mg/kg (measured dose 15 mg/kg).
[4] abbreviates: male, Wistar Han, in vivo, po, 45 mg/kg (measured dose 101 mg/kg).
Where [5] appears, read: male, Wistar Han, in vivo, po, 150 mg/kg (measured dose 204 mg/kg).

As a reminder, the half-life is the time needed for the level to fall by half in the phase considered. Low values mean fast loss, high ones slow loss. As a reminder, the AUC(0-inf) is the area under the concentration-time curve extrapolated to infinity. For orientation: AUC(0-t) means exposure summed from dosing to a finite time, without extrapolation to infinity. Usually Cmax stands for the maximum level reached in the sampled fluid or tissue. By Tmax is commonly meant the time from dosing to the highest level. Take `C=C(C)[C@@H]1CCC(C)=C[C@H]1c1c(O)cc(-c2cnn(C)c2)cc1O` [Compound 1, (1′R,2′R)-5′-methyl-4-(1-methyl-1H-pyrazol-4-yl)-2′-(prop-1-en-2-yl)-1′,2′,3′,4′-tetrahydro-[1,1′-biphenyl]-2,6-diol]: the half-life in series [1] (male, Wistar Han, in vivo, 15 mg/kg (measured dose 15 mg/kg)) was 3.3 h; in series [1] (male, Wistar Han, in vivo, 45 mg/kg (measured dose 101 mg/kg)) it was 3.6 h; in series [1] (male, Wistar Han, in vivo, 150 mg/kg (measured dose 204 mg/kg)) it was 4.3 h. The AUC(0-inf) is 5330 ng·h/mL in series [1] (setting [3]), 48300 ng·h/mL in series [1] (setting [4]) and 105000 ng·h/mL in series [1] (setting [5]). The AUC(0-t) worked out at 4250 ng·h/mL in series [1] (setting [3]), 47900 ng·h/mL in series [1] (setting [4]) and 101000 ng·h/mL in series [1] (setting [5]). In addition, the Cmax came out at 1130 ng/mL in series [1] (setting [3]), 4010 ng/mL in series [1] (setting [4]) and 6730 ng/mL in series [1] (setting [5]). Moreover, the Tmax is 1 h in series [1] (setting [3]), 1 h in series [1] (setting [4]) and 8 h in series [1] (setting [5]). Besides, the bioavailability is 69.6% in series [1] (male, Wistar Han, in vivo, po, 15 mg/kg, 15 mg/kg (measured dose 15 mg/kg), read-out: Bioavailability); 96.4% in series [1] (male, Wistar Han, in vivo, po, 45 mg/kg (measured dose 101 mg/kg), read-out: Bioavailability); 107% in series [1] (male, Wistar Han, in vivo, po, 150 mg/kg (measured dose 204 mg/kg), read-out: Bioavailability); “high” in series [1] (across concentrations (15, 45, 150 mg/kg)). Also, the “CC50 +/- SEM” value worked out at 30.8 ± 1.0 mA in series [2] (2 mg/kg i.p.), 52.5 ± 1.3 mA in series [2] (20 mg/kg i.p.) and 197.5 ± 20.4 mA in series [2] (200 mg/kg i.p.). Besides, the “% change from vehicle” value was found to be 27% in series [2] (CC50, 2 mg/kg i.p.); 116% in series [2] (CC50, 20 mg/kg i.p.); 712% in series [2] (CC50, 200 mg/kg i.p.).

Take `CN1C(=O)CN=C(c2ccccc2)c2cc(Cl)ccc21` [Diazepam, diazepam, reference compound]: the “% change from vehicle” value in series [2] (CC50, diazepam 2.5 mg/kg i.p.) was 223%.

The values are drawn from patent US12534438B2, “Cannabinoid derivative as a pharmaceutically active compound and method of preparation thereof” (priority 2020, dated 2026).
